The values that follow come from patent US6495699B2, “Metalloproteinase inhibitors, pharmaceutical compositions containing them, and their use” (Agouron Pharmaceuticals Inc., priority 1996, dated 2002).

The nature of series [1]: Determination of inhibitor concentration in plasma after oral dosing. The class given is in vivo, Sprague Dawley rats. The following applies: Sprague-Dawley, rat plasma, dose 50 mg/kg, vehicle B (60% aq. propylene glycol). The method, then: The dosing solution consisted of the inhibitor dissolved in either a molar equivalent of HCl in water (vehicle A), in 60% aq. propylene glycol (vehicle B), or in 2.8 mg/mL sodium bicarbonate in 60% aqueous propylene glycol (vehicle C), yielding a final concentration that ranged from 10-15 mg/ml. Sprague Dawley rats (Hilltop Lab Animals, Scottsdale, Pa.) were dosed as a function of drug weight per body weight, usually 50 mgper kg. Blood was taken from the rats and centrifuged, and the plasma was stored in the freezer. Drug was extracted from a 50 μl plasma aliquot by adding 1 ml of acetonitrile, shaking for 2 minutes, centrifuging for 15 minutes at 4000 rpm, collecting the supernatant, and then evaporating it to dryness under a stream of nitrogen. The samples were reconstituted with 130 μl of mobile phase, shook for 2 minutes, and centrifuged for 15 minutes at 4000 rpm. The supernatant was collected and the samples were analyzed by injecting 100 μl of supernatant onto HPLC.
Quantitation of drug levels was accomplished by generating a standard curve of known drug amounts that were extracted from added plasma. Drug levels were plotted as a function of time and analyzed to provide area under the curve (AUC) and maximum concentration (Cmax) values.

The target in series [2] is T1, human progelatinase A (GelA), catalytic and fibronectin-like portion (Homo sapiens, UniProt P08253).
T1 construct: The catalytic and fibronectin-like portion of human progelatinase A (GelA) was expressed as a fusion protein with ubiquitin; ubiquitin; made in house; host or cells: E. coli
T1 sequence (P08253 110-465 limits assumed): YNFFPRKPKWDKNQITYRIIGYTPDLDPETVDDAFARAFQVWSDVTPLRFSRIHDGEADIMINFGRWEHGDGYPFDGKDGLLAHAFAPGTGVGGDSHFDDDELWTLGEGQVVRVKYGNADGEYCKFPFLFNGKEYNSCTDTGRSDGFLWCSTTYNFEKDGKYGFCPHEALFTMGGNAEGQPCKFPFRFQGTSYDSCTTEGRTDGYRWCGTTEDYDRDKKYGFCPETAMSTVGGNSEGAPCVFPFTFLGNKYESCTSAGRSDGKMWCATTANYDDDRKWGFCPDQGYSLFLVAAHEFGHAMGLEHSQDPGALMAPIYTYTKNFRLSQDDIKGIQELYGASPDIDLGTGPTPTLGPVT
The experiment in a line: Fluorometric MCA-peptide hydrolysis assay, gelatinase A (GelA). The format is biochemical. The following applies: apparent Ki; 10 μM MCA peptide substrate, 37° C., pH 7.5. The gist of the method:
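E. coli-expressed ubiquitin fusion of human proGelA catalytic plus fibronectin-like domains, autoactivated; 10 μM MCA-Pro-Leu-Gly-Leu-DPA-Ala-Arg-NH2, pH 7.5 Tricine/NaCl/CaCl2/Zn buffer, 2% DMSO, 37° C, 60 min. Fluorescence 328/393 nm; steady-state rates fitted to competitive inhibition or Morrison tight-binding equation giving Ki,app (≈Ki since [S]<<Km).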

The target of series [3] is T2, catalytic domain of human stromelysin (Hsln) (Homo sapiens, UniProt P08254).
T2 construct: The catalytic domain of human stromelysin (Hsln) was obtained by expression and purification of a C-terminally truncated prostromelysin-1; made in house; host or cells: E. coli BL21
T2 sequence (P08254 100-272 limits assumed): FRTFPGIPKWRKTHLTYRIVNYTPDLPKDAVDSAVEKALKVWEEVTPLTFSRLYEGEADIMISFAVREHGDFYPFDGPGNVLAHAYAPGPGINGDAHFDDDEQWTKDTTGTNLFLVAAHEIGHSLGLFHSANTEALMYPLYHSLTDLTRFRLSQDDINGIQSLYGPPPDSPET
Kind of series: Fluorometric MCA-peptide hydrolysis assay, stromelysin (Hsln). The format is biochemical. The following applies: apparent Ki; 10 μM MCA peptide substrate, 37° C., pH 7.5; read-out: Hsln (Ki,app). A digest of the protocol: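 APMA-activated E. coli–expressed catalytic domain, with 10 μM MCA-Pro-Leu-Gly-Leu-DPA-Ala-Arg-NH2 at 37 °C. Buffer was pH 7.5 Tricine with NaCl, CaCl2, zinc acetate and 2% final DMSO; fluorescence read at ex 328/em 393 nm over 60 min. Ki,app from steady-state rates fitted to competitive or Morrison tight-binding equations.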

Another series addresses T3, Human matrilysin (Matr) (Homo sapiens, UniProt P09237).
T3 construct: the catalytic domain was liberated by treatment with 2 mM APMA at 37° C. for 2 hours; ubiquitin (cleaved yes); made in house; host or cells: E. coli
T3 sequence (P09237 95-267): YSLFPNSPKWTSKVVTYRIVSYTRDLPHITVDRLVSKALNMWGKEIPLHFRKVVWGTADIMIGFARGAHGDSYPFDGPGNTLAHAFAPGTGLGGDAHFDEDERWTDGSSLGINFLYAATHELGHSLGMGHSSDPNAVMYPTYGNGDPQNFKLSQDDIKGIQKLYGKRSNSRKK
The experiment in a line: Fluorometric MCA-peptide hydrolysis assay, matrilysin (Matr). The class given is biochemical. The following applies: apparent Ki; 10 μM MCA peptide substrate, 37° C., pH 7.5; read-out: Matr (Ki,app). A digest of the protocol:
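Catalytic domain of E. coli-expressed human matrilysin assayed at 37° C, pH 7.5 Tricine buffer, 2% DMSO, with 10 μM MCA-Pro-Leu-Gly-Leu-DPA-Ala-Arg-NH2; fluorescence ex 328/em 393 nm over 60 min. Ki,app from steady-state rates fitted to competitive inhibition or Morrison tight-binding equation.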

Another series is described as follows: LogP. The class given is physicochemical.

Molecule `CNC(=O)[C@@H](NC(=O)[C@@H](CC(=O)O)n1ccc(-c2ccc(-c3ccc(C#N)cc3)cc2)c1)C(C)(C)C` [Example 5(c), 3(R)-[3-(4′-Cyanobiphenyl-4-yl)-1H-pyrrol-1-yl]-N-[2,2-dimethyl-1(S)-(methylcarbamoyl)propyl]succinamic Acid] registered a melting point of 142 to 144 °C. In series [1], the exposure (AUC) is 1.22 µg·h/mL and the Cmax stood at 0.41 µg/mL. The GelA (Ki,app) in series [2] came to 0.041 nM. Also, the Ki in series [3] came to 1.5 nM. The Ki at Human matrilysin (Matr) was determined as 305 nM. In “LogP”, this molecule gave a logP of 3.41.

By AUC is commonly meant concentration integrated over time. A high value points to high exposure. Usually Cmax stands for the highest concentration seen after dosing. The melting point is the temperature of the solid-liquid transition. Usually logP stands for the decadic logarithm of the partition coefficient of the neutral form, usually between octanol and water. The low end stands for lower lipophilicity, the high end for higher lipophilicity.
